{"source": "paper PMC9034499", "about": "“RORγt agonist enhances anti-PD-1 therapy by promoting monocyte-derived dendritic cells through CXCL10 in cancers” (Journal of Experimental & Clinical Cancer Research : CR, 2022)", "key": {"[1]": {"test_system": "Th17 cells (CD4+ T cells)", "assay": "Murine Th17 differentiation, flow cytometry", "format": "cell-based, mouse", "conditions": "Th17, intracellular staining, same concentration", "method": "CD4^+ CD25^−CD62L^high cells were purified from C57BL/6 splenocytes using an EasySep Mouse Naïve CD4^+ T cell isolation kit from STEMCELL Technologies (Vancouver, Canada), and they were differentiated into Th17 cells (TGF-β, 2 ng/ml; IL-6, 20 ng/ml; Anti-IFN-γ, 10 μg/ml; Anti-IL-4, 10 μg/ml, BioLegend, San Diego, CA) in the presence of plate-bound anti-CD3 (5 μg/ml, BioLegend, San Diego, CA) and anti-CD28 (2 μg/ml, BioLegend, San Diego, CA). The cells were harvested and processed for cytokine analysis at the RNA or protein level using real-time qPCR, flow cytometry, and ELISA on day five. Alternatively, splenocytes from OT-I mice were activated using OVA-derived peptides SIINFEKL (50 ng/ml, Sangon Biotech, Shanghai, China) and polarized to Tc17 cells using cytokine TGF-β (2 ng/ml, BioLegend, San Diego, CA) and IL-6 (20 ng/ml, BioLegend, San Diego, CA) for four or five days.\nCells were stained with fluorochrome-labeled anti-mouse Ab such as CD45, CD3, CD4, CD8, Foxp3, IFN-γ, IL-17A, CD11b, CD11c, pAKT, pSTAT3, CCR6, or MHCII. […] Cells were acquired using the FACS Aria II machine and analyzed using FlowJo software."}, "macrophages": {"test_system": "macrophages", "assay": "Macrophage markers by qPCR", "format": "cell-based", "conditions": "compared with vehicle", "method": "The intracellular cytokines by TILs or in vitro differentiated T helper cells were quantified after restimulation with PMA plus ionomycin in the presence of GolgiStop for 6 h. The total RNA was isolated using the improved TRizol-based (Sigma, Darmstadt, Germany) method for qPCR analysis, and the mRNA expression was analyzed using a StepOnePlus (Life Technologies, Carlsbad, USA) real-time PCR instrument using housekeeping gene β-actin and Gapdh internal standards. qPCR was performed using A Power SYBR Green PCR Master Mix (Accurate Biology, Hunan, China) and two-cycle amplification for 40 cycles followed by the melting curve. The sequence of primers is listed in the Additional file 6: Table S1. In addition, the cytokines were quantified in cell-free culture supernatants using enzymelinked immunosorbent assay (ELISA) kit (the optical density (OD) value was measured at 450 nm, using 570 nm or 630 nm as the reference wavelengths, Multisciences, Hangzhou, China). The kit was used according to the manufacturer’s instructions.\nTo confirm the in vitro specificity of 8-074, splenocytes from C57BL/6 wild-type mice were activated by plate-bound anti-CD3 and anti-CD28 antibodies and polarized with anti-IL-4 and IL-12 to obtain Th1 cells. IFN-γ, a signature cytokine of Th1 cells, was not affected by LYC-55716 or 8-074 compared with vehicle alone (Fig. 2j, Fig. S2g)."}, "[2]": {"test_system": "mutated RORγt protein at key binding sites", "assay": "Biacore binding to mutated RORγt LBD protein", "set-up": "species or system human", "excerpt": "Human nuclear receptor RORγt (residues 263–509)-GGG-SRC1 (SRC1 sequence: EKHKILHRLLQDS, Sangon Biotech, Shanghai). RORγt LBD was cloned in pET28a. Key residue mutations of RORγt LBD (such as PHE388, LEU391, CYS393, LEU396, ILE397, ILE400, CYS320, ALA321, LEU324, MET358, and PHE388) with LYC-55716 were cloned in pET28a. Key residue mutations of RORγt LBD (MET365, ALA368, PHE401, ILE400, ILE397, LEU396, TRP317, CYS320, LEU324, ALA327, TYR330, VAL331, MET358, and VAL361) with 8-074 were cloned in pET28a. The proteins were expressed in E. coli strain DE3. Then, the transformed E. coli culture was grown at 37 °C with 30 μg/mL Kanamycin LB (Luria–Bertani). When the OD600 of LB medium reached 0.6, the temperature was changed to 16 °C, and isopropyl-β-D-thiogalactopyranoside (IPTG, Beyotime, Shanghai, China) was added at a final concentration of 0.4 mM to induce protein expression for 16 h. After 16 h, the pellet was collected after centrifugation at 4,000 rpm for 15 min at 4 °C. […]\nThe RORγt protein was immobilized on a CM5 chip (GE Health, Chicago, USA) using Biaocre 8 K. A sensogram was obtained using different serial concentrations of 8-074 (5000 nM, 2500 nM, 1250 nM, 625 nM, 312.5 nM, 156.25 nM, 78.125 nM, and 39.0625 nM). […] Data were analyzed using Biacore Evaluation Software."}}}
{"smiles": "CCS(=O)(=O)c1ccc(CC(=O)Nc2ccc(-c3ccc(CC(C)C)c(C#N)c3)c(C(F)(F)F)c2)cc1", "note": "[8-074]", "values": [{"measurement": "percentage of CD4+ T cells that express IL-17A", "setting": "[1]", "result": 24.0, "unit": "%"}, {"measurement": "gene expression of macrophage markers Arg1, Il-1β, Il-6, and Il-10", "setting": "macrophages", "result": "no significant change"}, {"measurement": "binding affinity with the mutated RORγt protein", "setting": "[2]", "result": "no binding affinity"}]}
